{
  "source": "BindingDB's records for patent US10538523",
  "about": "(PFIZER LIMITED, 2020)",
  "molecular_target": "T1, Gamma-aminobutyric acid receptor subunit alpha-2 (Homo sapiens, UniProt P18507+P47869+P47870)",
  "T1 sequence (P47869 whole entry)": "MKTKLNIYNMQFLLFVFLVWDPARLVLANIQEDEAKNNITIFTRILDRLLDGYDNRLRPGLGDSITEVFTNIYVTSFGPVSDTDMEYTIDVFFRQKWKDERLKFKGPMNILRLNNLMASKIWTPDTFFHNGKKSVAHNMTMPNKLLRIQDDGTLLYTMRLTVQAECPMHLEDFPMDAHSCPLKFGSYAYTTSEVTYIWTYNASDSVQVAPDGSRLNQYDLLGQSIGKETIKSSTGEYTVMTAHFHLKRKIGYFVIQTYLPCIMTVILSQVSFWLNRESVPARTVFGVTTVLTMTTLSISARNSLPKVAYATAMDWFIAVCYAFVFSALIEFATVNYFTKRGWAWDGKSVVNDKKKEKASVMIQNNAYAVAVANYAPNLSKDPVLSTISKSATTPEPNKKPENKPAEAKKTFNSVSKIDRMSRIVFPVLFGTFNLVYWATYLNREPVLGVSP",
  "assay": "Binding Assay",
  "description": "100 ul of radioligand and 100 ul of membrane in 50 mM Tris-HCl and 0.05% F127 with 1 ul of test compound was incubated for 2 hours to allow the reaction to achieve equilibrium, and then harvested onto filter plates, dried and counted on a TopCount NXT. The data was analysed, and the Ki values were presented as the geometric mean of at least two replicates.",
  "data": [
    {"smiles": "CCn1ncc2c(-c3ccc(F)c(-c4cc5c(cc4OC)C(=O)N(C)C5)c3)cnnc21", "note": "[US10538523, Example 3]", "values": [
      {"measurement": "Ki", "result": 11.8, "unit": "nM"}
    ]}
  ]
}
